The assay deals with T1, human mAChR M1 (Homo sapiens, UniProt P11229).
T1 construct: host or cells: CHO-K1
T1 sequence (P11229 1-460): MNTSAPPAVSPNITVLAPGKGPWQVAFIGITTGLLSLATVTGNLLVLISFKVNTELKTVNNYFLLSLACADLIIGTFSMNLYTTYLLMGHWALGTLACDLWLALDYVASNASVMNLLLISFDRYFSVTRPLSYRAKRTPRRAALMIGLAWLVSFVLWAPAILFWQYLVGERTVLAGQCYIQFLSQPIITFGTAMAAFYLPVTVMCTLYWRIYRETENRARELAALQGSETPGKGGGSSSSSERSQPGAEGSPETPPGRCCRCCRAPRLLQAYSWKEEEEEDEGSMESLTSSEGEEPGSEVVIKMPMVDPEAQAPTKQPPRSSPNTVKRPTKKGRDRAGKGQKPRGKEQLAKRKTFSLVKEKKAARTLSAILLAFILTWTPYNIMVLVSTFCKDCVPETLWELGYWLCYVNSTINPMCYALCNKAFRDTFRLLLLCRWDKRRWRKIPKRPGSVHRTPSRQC
Description: mAChR M1 cell-based functional assay (calcium mobilization, Fluo-4, FDSS). The following applies: CHO-K1 cells stably expressing hM1; for Emax: EC20 acetylcholine response, read-out: Human M1 Emax; for EC50: positive allosteric modulator activity as increase in the EC20 acetylcholine response. Here is the method:
Chinese hamster ovary (CHO-K1) cells stably expressing rat (r)M1 were purchased from the American Type Culture Collection and cultured according to their indicated protocol. […] To make stable rM2, hM2, rM3, hM4, and rM4 cell lines for use in calcium mobilization assays, these cells also were stably transfected with a chimeric G-protein (Gqi5) (provided by B. R. Conklin, University of California, San Francisco) using Lipofectamine 2000. rM1, hM1, rM3, hM3, rM5, and hM5 cells were grown in Ham's F-12 medium containing 10% heat-inactivated fetal bovine serum (FBS), 20 mM HEPES, and 50 μg/mL G418 sulfate. rM2-Gqi5, hM2-Gqi5, and hM4-Gqi5 cells were grown in the same medium also containing 500 μg/mL Hygromycin B. Stable rM4-Gqi5 cells were grown in DMEM containing 10% heat-inactivated FBS, 20 mM HEPES, 400 μg/mL G418 sulfate, and 500 μg/mL Hygromycin B.
For high throughput measurement of agonist-evoked increases in intracellular calcium, CHO-K1 cells stably expressing muscarinic receptors were plated in growth medium lacking G418 and hygromycin at 15,000 cells/20 μL/well in Greiner 384-well black-walled, tissue culture (TC)-treated, clear-bottom plates (VWR). Cells were incubated overnight at 37° C. and 5% CO2. […] Compound master plates were formatted in an 11 point CRC format (1:3 dilutions) in 100% DMSO with a starting concentration of 10 mM using the BRAVO liquid handler (Agilent). Test compound CRCs were then transferred to daughter plates (240 nL) using the Echo acoustic plate reformatter (Labcyte, Sunnyvale, Calif.) and then diluted into assay buffer (40 μL) to a 2× stock using a Thermo Fisher Combi (Thermo Fisher Scientific, Waltham, Mass.).
Calcium flux was measured using the Functional Drug Screening System (FDSS) 6000 (Hamamatsu Corporation, Tokyo, Japan) as an increase in the fluorescent static ratio. Compounds were applied to cells (20 μL, 2×) using the automated system of the FDSS 6000 at 4 s into the 300 s protocol and the data were collected at 1 Hz. […] Agonist activity was analyzed as a concentration-dependent increase in calcium mobilization upon compound addition. Positive allosteric modulator activity was analyzed as a concentration-dependent increase in the EC20 acetylcholine response. Antagonist activity was analyzed as a concentration-dependent decrease in the EC80 acetylcholine response. Concentration-response curves were generated using a four-parameter logistical equation in XLfit curve fitting software (IDBS, Bridgewater, N.J.) for Excel (Microsoft, Redmond, Wash.) or Prism (GraphPad Software, Inc., San Diego, Calif.).
The compound numbers correspond to the compound numbers used in Table 1.
A general note: Calcium assays in cells follow changes in intracellular calcium, usually with a dye or a luminescent sensor.

For `Cn1ccc(-c2ccc(Cc3cc(C(=O)NCC4CCOCC4)nc4c3ccn4C)cc2)n1` [Compound 43, 1-methyl-4-[[4-(1-methylpyrazol-3-yl)phenyl]methyl]-N-(tetrahydropyran-4-ylmethyl)pyrrolo[2,3-b]pyridine-6-carboxamide], the maximal response (Emax) was found to be 49.6% and the concentration for a half-maximal effect (EC50) amounted to 610 nM.
With `Cn1ccc(-c2ccc(Cc3cc(C(=O)NC4COC4)nc4c3ccn4C)cc2)n1` [Compound 44, 1-methy1-4-[[4-(1-methylpyrazol-3-yl)phenyl]methyl]-N-(oxetan-3-yl)pyrrolo[2,3-b]pyridine-6-carboxamide], the maximal effect (Emax) turned out to be 56.1% and the EC50 was found to be 6280 nM.
As to `Cn1cc(-c2ccc(Cc3cc(C(=O)N[C@H]4CCOC[C@@H]4O)nc4c3ccn4C)cn2)cn1` [Compound 45, N-[(3R,4S)-3-hydroxytetrahydropyran-4-yl]-1-methyl-4-[[6-(1-methylpyrazol-4-yl)-3-pyridyl]methyl]pyrrolo[2,3-b]pyridine-6-carboxamide], the Emax is 74.3% and the EC50 came out at 10 nM.
Consider `Cn1cc(-c2ccc(Cc3cc(C(=O)N[C@H]4CCCC[C@@H]4O)nc4c3ccn4C)cn2)cn1` [Compound 46, N-[(1S,2S)-2-hydroxycyclohexyl]-1-methyl-4-[[6-(1-methylpyrazol-4-yl)-3-pyridyl]methyl]pyrrolo[2,3-b]pyridine-6-carboxamide], for which the maximal response (Emax) came out at 73.9% and the EC50 was determined as 30 nM.
Regarding `Cn1cc(-c2ccc(Cc3cc(C(=O)NC4CC5(COC5)C4)nc4c3ccn4C)cn2)cn1` [Compound 48, 1-methyl-4-[[6-(1-methylpyrazol-4-yl)-3-pyridyl]methyl]-N-(2-oxaspiro[3.3]heptan-6-yl)pyrrolo[2,3-b]pyridine-6-carboxamide], the maximal response (Emax) is 87.1% and the EC50 was 140 nM.
Consider `Cn1cc(-c2ccc(Cc3cc(C(=O)NC4CCOC(C)(C)C4)nc4c3ccn4C)cn2)cn1` (stereo not shown) [Compound 49, N-(2,2-dimethyltetrahydropyran-4-yl)-1-methy1-4-[[6-(1-methylpyrazol-4-yl)-3-pyridyl]methyl]pyrrolo[2,3-b]pyridine-6-carboxamide], for which the Emax came to 87.9% and the EC50 amounted to 180 nM.
As for `Cn1cc(-c2ccc(Cc3cc(C(=O)N[C@H]4CC[C@@H]4O)nc4c3ccn4C)cn2)cn1` [Compound 50, N-[(1S,2S)-2-hydroxycyclobutyl]-1-methyl-4-[[6-(1-methylpyrazol-4-yl)-3-pyridyl]methyl]pyrrolo[2,3-b]pyridine-6-carboxamide], the Emax is 86.2% and the EC50 was determined as 380 nM.
Regarding `Cc1nc(-c2ccc(Cc3cc(C(=O)N[C@H]4CCOC[C@@H]4O)nc4c3ccn4C)cc2)co1` [Compound 51, N-[(3R,4S)-3-hydroxytetrahydropyran-4-yl]-1-methyl-4-[[4-(2-methyloxazol-4-yl)phenyl]methyl]pyrrolo[2,3-b]pyridine-6-carboxamide], the Emax turned out to be 83.4% and the EC50 was 30 nM.
On the same counts, the results for `Cc1nc(-c2ccc(Cc3cc(C(=O)N[C@H]4CCCC[C@@H]4O)nc4c3ccn4C)cc2)co1` [Compound 52, N-[(1S,2S)-2-hydroxycyclohexyl]-1-methyl-4-[[4-(2-methyloxazol-4-yl)phenyl]methyl]pyrrolo[2,3-b]pyridine-6-carboxamide] are 80.1% and 100 nM.
On the same counts, the results for `Cc1nc(-c2ccc(Cc3cc(C(=O)NC4CC5(COC5)C4)nc4c3ccn4C)cc2)co1` [Compound 54, 1-methyl-4-[[4-(2-methyloxazol-4-yl)phenyl]methyl]-N-(2-oxaspiro[3.3]heptan-6-yl)pyrrolo[2,3-b]pyridine-6-carboxamide] are 84.6% and 380 nM.
On the same counts, the results for `Cc1nc(-c2ccc(Cc3cc(C(=O)NC4CCOC(C)(C)C4)nc4c3ccn4C)cc2)co1` (stereo not shown) [Compound 55, N-(2,2-dimethyltetrahydropyran-4-yl)-1-methyl-4-[[4-(2-methyloxazol-4-yl)phenyl]methyl]pyrrolo[2,3-b]pyridine-6-carboxamide] are 86.1% and 520 nM.
`Cc1nc(-c2ccc(Cc3cc(C(=O)N[C@H]4CCC[C@@H]4O)nc4c3ccn4C)cc2)co1` [Compound 56, N-[(1S,2S)-2-hydroxycyclopentyl]-1-methy1-4-[[4-(2-methyloxazol-4-yl)phenyl]methyl]pyrrolo[2,3-b]pyridine-6-carboxamide]: the maximum response (Emax) came to 84% and the concentration giving a half-maximal response (EC50) was determined as 270 nM.
The corresponding values for `Cc1nc(-c2ccc(Cc3cc(C(=O)N[C@H]4CC[C@@H]4O)nc4c3ccn4C)cc2)co1` [Compound 57, N-[(1S,2S)-2-hydroxycyclobutyl]-1-methy1-4-[[4-(2-methyloxazol-4-yl)phenyl]methyl]pyrrolo[2,3-b]pyridine-6-carboxamide] are 83.6% and 840 nM.
On the same counts, the results for `Cc1nc(-c2ccc(Cc3cc(C(=O)NCC4CCOCC4)nc4c3ccn4C)cc2)co1` [Compound 58, 1-methyl-4-[[4-(2-methyloxazol-4-yl)phenyl]methyl]-N-(tetrahydropyran-4-ylmethyl)pyrrolo[2,3-b]pyridine-6-carboxamide] are 84.1% and 1050 nM.
For `Cn1ccc2c(Cc3ccc(-c4nccs4)cc3)cc(C(=O)N[C@H]3CCOC[C@@H]3O)nc21` [Compound 59, N-[(3R,4S)-3-hydroxytetrahydropyran-4-yl]-1-methy1-4-[(4-thiazol-2-ylphenyl)methyl]pyrrolo[2,3-b]pyridine-6-carboxamide], the Emax was found to be 57.3% and the EC50 amounted to 30 nM.
With `Cn1ccc2c(Cc3ccc(-c4nccs4)cc3)cc(C(=O)N[C@H]3CCCC[C@@H]3O)nc21` [Compound 60, N-[(1S,2S)-2-hydroxycyclohexyl]-1-methyl-4-[(4-thiazol-2-ylphenyl)methyl]pyrrolo[2,3-b]pyridine-6-carboxamide], the maximum response (Emax) was determined as 55.4% and the EC50 came out at 110 nM.
As to `Cn1ccc2c(Cc3ccc(-c4nccs4)cc3)cc(C(=O)NC3CC4(COC4)C3)nc21` [Compound 62, 1-methyl-N-(2-oxaspiro[3.3]heptan-6-yl)-4-[(4-thiazol-2-ylphenyl)methyl]pyrrolo[2,3-b]pyridine-6-carboxamide], the maximal response (Emax) stood at 60.6% and the EC50 amounted to 870 nM.
Turning to `Cn1ccc2c(Cc3ccc(-c4nccs4)cc3)cc(C(=O)N[C@H]3CC[C@@H]3O)nc21` [Compound 63, N-[(1S,2S)-2-hydroxycyclobutyl]-1-methyl-4-[(4-thiazol-2-ylphenyl)methyl]pyrrolo[2,3-b]pyridine-6-carboxamide], the Emax was determined as 60.4% and the concentration giving a half-maximal response (EC50) was 1500 nM.
As to `Cn1ccc2c(Cc3ccc(-c4nccs4)cc3)cc(C(=O)N[C@H]3CCC[C@@H]3O)nc21` [Compound 64, N-[(1S,2S)-2-hydroxycyclopentyl]-1-methyl-4-[(4-thiazol-2-ylphenyl)methyl]pyrrolo[2,3-b]pyridine-6-carboxamide], the Emax was determined as 57.2% and the EC50 turned out to be 33600 nM.
Regarding `C[C@@H]1CC(NC(=O)c2cc(Cc3ccc(-c4nccs4)cc3)c3ccn(C)c3n2)C[C@H](C)O1` (stereo partly drawn) [Compound 65, N-[(2S,6R)-2,6-dimethyltetrahydropyran-4-yl]-1-methyl-4-[(4-thiazol-2-ylphenyl)methyl]pyrrolo[2,3-b]pyridine-6-carboxamide], the Emax was 58.6% and the concentration for a half-maximal effect (EC50) turned out to be 2780 nM.

One may read the Emax as the maximal effect, on the per cent scale that the assay sets. By EC50 is commonly meant the concentration that produces a half-maximal response.

These data come from patent US10899759B2, “Positive allosteric modulators of the muscarinic acetylcholine receptor M1” (Vanderbilt University, priority 2016, dated 2021).
